pIC50: −log10 of the molar value.
Biological target: T1, aldose reductase (Bos taurus, UniProt P16116)
T1 construct: purified aldose reductase is isolated in known manner from bovine lenses; from tissue; host or cells: bovine lens
Assay: in vitro inhibition of purified aldose reductase from bovine lenses (reduction of glucose to sorbitol, spectrophotometric)
Assay type: biochemical
Conditions: aldose reductase preparation obtained from bovine lenses; read-out: concentration producing a 50% reduction in the conversion of glucose to sorbitol
Experimental: Thus, purified aldose reductase is isolated in known manner from bovine lenses. The percentage inhibition of this enzyme's ability in vitro to reduce aldoses to polyhydric alcohols, and particularly to reduce glucose to sorbitol, caused by a test compound is then determined using standard spectrophotometric methods. In this test the compounds of formula I in general show significant inhibition of the enzyme aldose reductase at a concentration of about 10^-8 M.

pIC50: 7.98
Compound: O=C1NC(=O)C2(N1)C(=O)N(Cc1ccc(Br)cc1F)c1c(C(F)(F)F)cccc12 (racemic) [A, 1'-(4-bromo-2-fluorobenzyl)-7'-(trifluoromethyl)-spiro[imidazolidine-4,3'-indoline]-2,2',5-trione]
